In US6887658B2, “Methods of identifying non-specific inhibitors of biomolecules” (Northwestern University, priority 2001, dated 2005):
Read-outs that look alike come from different tables or passages of the source.

How the values were obtained:
HIV Tar RNA = conditions: original target; read-out: IC50 Original Target(s): HIV Tar RNA; cited from earlier work
[1] = Dynamic light scattering (DLS); format: physicochemical
AmpC β-lactamase [2] = target: T1, AmpC β-lactamase (Escherichia coli, UniProt P00811); experiment: biochemical
T1 sequence (P00811 20-377 limits assumed): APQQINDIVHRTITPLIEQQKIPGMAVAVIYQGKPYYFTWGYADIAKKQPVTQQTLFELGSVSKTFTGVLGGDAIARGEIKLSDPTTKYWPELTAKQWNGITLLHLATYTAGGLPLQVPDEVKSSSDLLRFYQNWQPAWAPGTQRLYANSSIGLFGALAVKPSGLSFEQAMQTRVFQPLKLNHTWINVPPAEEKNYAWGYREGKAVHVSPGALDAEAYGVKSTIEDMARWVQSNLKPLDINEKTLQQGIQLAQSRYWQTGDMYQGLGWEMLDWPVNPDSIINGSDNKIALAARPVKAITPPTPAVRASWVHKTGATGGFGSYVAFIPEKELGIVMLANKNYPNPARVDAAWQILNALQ

AmpC β-lactamase [3] = target: T1, AmpC β-lactamase; conditions: for ↑ IC50 vs. 10x β-lactamase: 10-fold increase in β-lactamase; for ↑ IC50 vs. 10x Enzyme: β-lactamase 10 nM vs 1 nM
chymotrypsin = chymotrypsin (Bos taurus, UniProt P00766); experiment: chymotrypsin inhibition enzyme assay; format: biochemical
[4] = system: model enzymes (β-lactamase, chymotrypsin, DHFR, β-galactosidase); format: biochemical
[5] = format: physicochemical; conditions: 625 μM in 20 mM Tris, pH 7.2
[6] = target: triosephosphate isomerase (Plasmodium falciparum, UniProt Q07412); conditions: read-out: IC50 Original Target(s): TIM; cited from earlier work
triosephosphate isomerase, sequence (Q07412 whole entry): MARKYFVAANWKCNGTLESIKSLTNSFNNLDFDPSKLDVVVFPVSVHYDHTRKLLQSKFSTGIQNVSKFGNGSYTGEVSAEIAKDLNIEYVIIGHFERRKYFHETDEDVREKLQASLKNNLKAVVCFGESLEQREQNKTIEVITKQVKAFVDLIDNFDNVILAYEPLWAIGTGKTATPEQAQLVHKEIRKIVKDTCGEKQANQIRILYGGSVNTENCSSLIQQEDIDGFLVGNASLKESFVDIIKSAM

prion = conditions: original target; read-out: IC50 Original Target(s): prion; cited from earlier work
insulin receptor = insulin receptor (Homo sapiens, UniProt P06213); conditions: original target; footnote b: Kd; read-out: Kd Original Target(s): insulin receptor; cited from earlier work
insulin receptor, sequence (P06213 28-1382, species assumed): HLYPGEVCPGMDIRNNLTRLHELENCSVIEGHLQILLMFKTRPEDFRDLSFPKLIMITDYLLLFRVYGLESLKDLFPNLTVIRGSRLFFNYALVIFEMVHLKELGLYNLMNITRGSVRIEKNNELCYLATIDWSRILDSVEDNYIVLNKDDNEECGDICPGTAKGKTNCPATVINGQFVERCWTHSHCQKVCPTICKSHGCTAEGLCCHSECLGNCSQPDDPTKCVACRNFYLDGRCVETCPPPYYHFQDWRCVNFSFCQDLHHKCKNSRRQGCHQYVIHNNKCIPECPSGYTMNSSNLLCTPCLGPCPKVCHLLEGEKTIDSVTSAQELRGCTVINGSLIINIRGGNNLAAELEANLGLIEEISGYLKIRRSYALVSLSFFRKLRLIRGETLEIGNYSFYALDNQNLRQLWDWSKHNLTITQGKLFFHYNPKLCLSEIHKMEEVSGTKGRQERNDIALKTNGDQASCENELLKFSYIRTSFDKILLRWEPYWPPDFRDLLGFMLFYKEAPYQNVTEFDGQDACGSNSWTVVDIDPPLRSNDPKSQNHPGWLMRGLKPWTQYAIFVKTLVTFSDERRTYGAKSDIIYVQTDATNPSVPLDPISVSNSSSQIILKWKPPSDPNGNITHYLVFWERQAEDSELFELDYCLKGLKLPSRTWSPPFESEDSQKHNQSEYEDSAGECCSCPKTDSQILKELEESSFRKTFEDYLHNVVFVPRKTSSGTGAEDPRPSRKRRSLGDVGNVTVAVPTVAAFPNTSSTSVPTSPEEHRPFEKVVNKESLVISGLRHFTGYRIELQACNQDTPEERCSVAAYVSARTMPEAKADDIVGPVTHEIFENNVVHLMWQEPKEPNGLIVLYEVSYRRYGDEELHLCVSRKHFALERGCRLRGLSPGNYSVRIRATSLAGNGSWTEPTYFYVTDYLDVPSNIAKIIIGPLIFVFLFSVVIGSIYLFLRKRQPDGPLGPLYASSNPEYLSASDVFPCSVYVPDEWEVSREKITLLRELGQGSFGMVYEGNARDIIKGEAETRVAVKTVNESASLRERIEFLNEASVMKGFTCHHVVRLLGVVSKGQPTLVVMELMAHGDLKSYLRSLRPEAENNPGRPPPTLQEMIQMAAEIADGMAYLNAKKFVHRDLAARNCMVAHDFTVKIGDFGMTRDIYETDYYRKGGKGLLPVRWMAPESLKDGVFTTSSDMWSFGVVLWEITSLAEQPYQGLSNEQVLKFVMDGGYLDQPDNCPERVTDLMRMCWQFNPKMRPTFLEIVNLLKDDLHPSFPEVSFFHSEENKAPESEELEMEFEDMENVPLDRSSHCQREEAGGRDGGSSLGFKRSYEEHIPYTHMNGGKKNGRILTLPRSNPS

β-galactosidase = β-galactosidase (Escherichia coli, UniProt P00722); experiment: biochemical; conditions: for ↑ IC50 in the presence of BSA, against β-galactosidase: 0.1 mg/mL BSA
β-galactosidase, sequence (P00722 2-1024 limits assumed): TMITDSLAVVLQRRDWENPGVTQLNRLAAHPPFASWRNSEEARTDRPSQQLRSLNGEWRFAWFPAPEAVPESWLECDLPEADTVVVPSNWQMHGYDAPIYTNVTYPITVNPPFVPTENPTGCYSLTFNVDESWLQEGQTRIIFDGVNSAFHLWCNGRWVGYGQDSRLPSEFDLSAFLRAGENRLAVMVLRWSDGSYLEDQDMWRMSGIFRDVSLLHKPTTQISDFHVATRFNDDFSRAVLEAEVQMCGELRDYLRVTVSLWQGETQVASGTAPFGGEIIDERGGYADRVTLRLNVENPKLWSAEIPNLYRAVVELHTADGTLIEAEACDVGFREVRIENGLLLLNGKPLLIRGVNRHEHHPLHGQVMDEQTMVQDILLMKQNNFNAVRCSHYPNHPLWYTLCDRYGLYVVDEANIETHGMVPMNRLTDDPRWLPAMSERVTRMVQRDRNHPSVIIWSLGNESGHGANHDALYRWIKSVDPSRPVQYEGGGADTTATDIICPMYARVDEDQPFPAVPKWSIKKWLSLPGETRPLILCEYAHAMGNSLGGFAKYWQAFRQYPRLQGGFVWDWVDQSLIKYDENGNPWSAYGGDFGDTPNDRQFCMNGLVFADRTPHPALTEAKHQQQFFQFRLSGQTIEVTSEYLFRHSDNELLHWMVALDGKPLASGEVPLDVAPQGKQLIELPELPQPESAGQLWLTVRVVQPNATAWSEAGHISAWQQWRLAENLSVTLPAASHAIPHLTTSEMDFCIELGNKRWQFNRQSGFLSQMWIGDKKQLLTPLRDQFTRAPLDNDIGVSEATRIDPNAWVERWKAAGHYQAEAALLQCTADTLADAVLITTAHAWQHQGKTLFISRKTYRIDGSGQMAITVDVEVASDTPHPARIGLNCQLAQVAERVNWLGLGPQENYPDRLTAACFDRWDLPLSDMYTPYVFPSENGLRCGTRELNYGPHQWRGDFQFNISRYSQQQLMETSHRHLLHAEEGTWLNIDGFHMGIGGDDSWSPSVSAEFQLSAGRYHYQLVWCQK

[7] = target: phosphoinositide 3-kinase; conditions: original target; read-out: IC50 Original Target(s): PI3K; cited from earlier work
integrase = conditions: original target; read-out: IC50 Original Target(s): integrase; cited from earlier work
kinesin = conditions: original target; read-out: IC50 Original Target(s): kinesin; cited from earlier work
thymidylate synthase = conditions: original target; read-out: IC50 Original Target(s): TS; cited from earlier work
[8] = system: endothelial nitric oxide synthase; conditions: original target; read-out: IC50 Original Target(s): eNOS; cited from earlier work
[9] = system: neuronal nitric oxide synthase; conditions: original target; read-out: IC50 Original Target(s): nNOS; cited from earlier work
[10] = Table 4, 50 mM KPi, at the concentration under DLS conc.
[11] = Table 6, incubation with β-lactamase, 5 min
[12] = Table 6, read-out: IC50 vs. chymo.
[13] = Table 2, 5 min preincubation of inhibitor and enzyme vs none

## O=S(=O)(O)c1cc(O)c(/N=N/c2ccc3ccccc3c2O)c2ccccc12
HIV Tar RNA
  IC50: 50 µM

## O=C1C2C(C(=O)N1Nc1ccc([N+](=O)[O-])cc1[N+](=O)[O-])[C@@]1(Cl)C(Cl)=C(Cl)[C@]2(Cl)C1(Cl)Cl (stereo partly drawn)
[1]; DLS in 5 mM KPi
  Diameter, 5 mM KPi: 143.5 ± 7.9 nm
[1]; [10]
  DLS Diameter: 418.6 ± 38.8 nm
  DLS Intensity: 24.9 ± 3.1 kcps

## O=C(N/N=C/c1ccccc1O)C(=O)N/N=C/c1ccccc1O
[1]; DLS in 5 mM KPi
  Diameter, 5 mM KPi: 389.3 ± 55.4 nm
[1]; DLS in 500 mM KPi
  Diameter, 500 mM KPi: 426.6 ± 23.8 nm
[1]; [10]
  DLS Diameter: 394.6 ± 12.5 nm
  DLS Intensity: 26.4 ± 5.1 kcps

## O=C(O)c1cc(-c2ccc(Cl)cc2)nc(-c2ccc(Nc3ccc(Cl)cc3)cc2)c1
AmpC β-lactamase [2]
  IC50: 2 µM
AmpC β-lactamase [3]; Table 6
  ↑ IC50 vs. 10x β-lactamase: 4-fold
AmpC β-lactamase [3]; [11]
  ↓ IC50 with Incubation: 12-fold
chymotrypsin; [12]
  IC50: 2 µM

## CC(C)(C)c1ccc(-c2cc(C(=O)O)cc(-c3ccc(Cl)c(O)c3)n2)cc1
AmpC β-lactamase [2]
  IC50: 4 µM
AmpC β-lactamase [3]; Table 6
  ↑ IC50 vs. 10x β-lactamase: 12-fold
AmpC β-lactamase [3]; [11]
  ↓ IC50 with Incubation: >50-fold
chymotrypsin; [12]
  IC50: 13 µM

## CCCC[n+]1ccc(-c2cc(C(=O)O)cc(-c3ccc(Cl)cc3)n2)cc1
AmpC β-lactamase [2]
  IC50: 8 µM
AmpC β-lactamase [3]; Table 6
  ↑ IC50 vs. 10x β-lactamase: 20-fold
AmpC β-lactamase [3]; [11]
  ↓ IC50 with Incubation: 24-fold

## O=C1Nc2cccc(O)c2C1Cc1ccc2c(c1)CCCC2 (stereo not drawn)
AmpC β-lactamase [2]
  IC50: 15 µM
AmpC β-lactamase [3]; Table 6
  ↑ IC50 vs. 10x β-lactamase: 6-fold
AmpC β-lactamase [3]; [11]
  ↓ IC50 with Incubation: 3-fold
chymotrypsin; [12]
  IC50: 40 µM

## O=S(=O)(O)Cc1cc2cc(S(=O)(=O)O)c(/N=N/c3ccc(Br)cc3S(=O)(=O)O)c(O)c2c(O)c1/N=N/c1ccc(Br)cc1S(=O)(=O)O
AmpC β-lactamase [2]
  IC50: 80 µM
AmpC β-lactamase [3]; Table 6
  ↑ IC50 vs. 10x β-lactamase: >50-fold
AmpC β-lactamase [3]; [11]
  ↓ IC50 with Incubation: 2-fold

## CC(C)c1ccc(/C=C2/C(=O)Nc3ccccc32)cc1 [3-(4-isopropylbenzylidene)indolin-2-one]
[1]; DLS in 5 mM KPi
  Diameter, 5 mM KPi: 247.1 ± 12.8 nm
[1]; DLS in 500 mM KPi
  Diameter, 500 mM KPi: 494.3 ± 48.1 nm
[1]; [10]
  DLS Diameter: 379.0 ± 14.1 nm
  DLS Intensity: 43.8 ± 5.7 kcps

## O=S(=O)(O)c1cccc2cccc(Nc3ccccc3)c12 [ANS, 8-anili-no-1-naphthalene-sulfonic acid]
[4]
  inhibition of the model enzymes: does not inhibit the model enzymes
[5]
  particles observed by TEM: Particles were not observed
[1]
  DLS Diameter: No particles
  DLS Intensity: 0.5 ± 0.1 kcps
  Diameter, 5 mM KPi: No particles
  Diameter, 50 mM KPi: No particles
  Diameter, 500 mM KPi: No particles

## OB(O)c1cc2ccccc2s1 [Benzo[b]thiophene-2-boronic acid]
AmpC β-lactamase [3]; [13]
  ↓ IC50 with Incubation: No change
AmpC β-lactamase [3]; Table 2
  ↑ IC50 vs. 10x Enzyme: No change
[1]; 50 mM KPi
  particle formation in solution by DLS (autocorrelation function): not observed to form particles
[1]; DLS in 5 mM KPi
  Diameter, 5 mM KPi: No particles
[1]; DLS in 50 mM KPi
  Diameter, 50 mM KPi: No particles
[1]; DLS in 500 mM KPi
  Diameter, 500 mM KPi: No particles
[1]; [10]
  DLS Diameter: No particles
  DLS Intensity: 0.9 ± 0.2 kcps

## Nc1c(/N=N/c2ccc(-c3ccc(/N=N/c4cc(S(=O)(=O)O)c5ccccc5c4N)cc3)cc2)cc(S(=O)(=O)O)c2ccccc12 [Congo Red]
[4]
  inhibition of the model enzymes: inhibit the model enzymes
[6]
  IC50: 30.4 µM
[1]
  DLS Diameter: 202.6 ± 22.5 nm
  DLS Intensity: 131.1 ± 64.3 kcps
  particle formation in solution by DLS (autocorrelation function): did form particles detectable by DLS
prion
  IC50: 1000 nM

## O=C1OC2(c3cc(I)c(O)c(I)c3Oc3c2cc(I)c(O)c3I)c2c(Cl)c(Cl)c(Cl)c(Cl)c21 [Rose Bengal lactone]
Insulin receptor
  Kd: 20 µM

## O=C1O/C(=C\Nc2ccc(Oc3ccccc3)cc2)c2ccccc21 [drawing 3]
AmpC β-lactamase [2]
  IC50: 5 µM

## Oc1ccc(/N=N/c2ccc(Br)cc2)cc1 [drawing 33]
β-galactosidase
  ↑ IC50 in the presence of BSA, against β-galactosidase: 8 fold

## O=C1O/C(=C\Nc2ccc(Oc3ccccc3)cc2)c2ccccc21 [drawing 34]
β-galactosidase
  ↑ IC50 in the presence of BSA, against β-galactosidase: 9 fold

## Oc1ccc(/N=N/c2ccc(Br)cc2)cc1 [drawing 40]
[1]; DLS in 5 mM KPi
  Diameter, 5 mM KPi: 140.2 ± 12.1 nm
[1]; DLS in 500 mM KPi
  Diameter, 500 mM KPi: 267.4 ± 24.5 nm
[1]; [10]
  DLS Diameter: 176.2 ± 7.9 nm
  DLS Intensity: 12.6 ± 3.9 kcps

## O=C1O/C(=C\Nc2ccc(Oc3ccccc3)cc2)c2ccccc21 [drawing 41]
[1]; [10]
  DLS Diameter: 94.7 ± 4.2 nm
  DLS Intensity: 16.2 ± 1.1 kcps

## O=c1c(O)c(-c2ccc(O)c(O)c2)oc2cc(O)cc(O)c12 [quercetin]
β-galactosidase; Table 1, 37° C.
  IC50: 220 µM
[7]
  IC50: 3.8 µM
integrase
  IC50: 11 µM

## O=C1C(I)=CC(=C(c2cc(I)c(O)c(I)c2)c2ccccc2C(=O)O)C=C1I [tetraiodophenolphthalein]
kinesin
  IC50: 30 µM
Thymidylate synthase
  IC50: 3000 nM
[1]; 50 mM KPi
  particle formation in solution by DLS (autocorrelation function): presence of particles
[1]; DLS in 5 mM KPi
  Diameter, 5 mM KPi: 86.2 ± 10.5 nm
[1]; DLS in 500 mM KPi
  Diameter, 500 mM KPi: 320.4 ± 38.8 nm
[1]; [10]
  DLS Diameter: 153.4 ± 26.0 nm
  DLS Intensity: 42.2 ± 3.9 kcps
[1]; same conditions as TEM
  DLS mean diameter in the TEM conditions: 83.2 ± 6.5 nm

## tris (dicarboxymethylene) fullerene-C3
AmpC β-lactamase [3]; [13]
  ↓ IC50 with Incubation: 2-fold
AmpC β-lactamase [3]; Table 2
  ↑ IC50 vs. 10x Enzyme: >50-fold
AmpC β-lactamase [3]; read-out: IC50 β-lactamase, Table 1, 50 mM KPi pH 7.0, 5 min incubation, 1 nM enzyme
  IC50: 7 µM
chymotrypsin; Table 1, read-out: IC50 Chymotrypsin
  IC50: 60 µM
[8]
  IC50: 17 µM
[9]
  IC50: 24 µM
